Source: ChEMBL document CHEMBL1201862, “PubChem BioAssay data set” (2004)
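Results reflect a 48-hour exposure of cells in 96-well plates to compound at five concentrations. Abbreviation: GI50, concentration required for 50% inhibition of growth.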 The source made the active and inactive calls. Cut-off read from the data, not from the text of the source: active = GI50 up to about 1.1 µM and inactive = higher.

What was measured:
Assay in all cases: growth of human tumour cells (NCI), 48 h
A498 = tested on: A498
HL-60 = tested on: HL-60
SF-539 = tested on: SF-539
UO-31 = tested on: UO-31
DMS-114 = tested on: DMS-114
DLD-1 = tested on: DLD-1
M14 = tested on: M14
OVCAR-8 = tested on: OVCAR-8
SK-MEL-28 = tested on: SK-MEL-28
SK-OV-3 = tested on: SK-OV-3
HOP-18 = tested on: HOP-18
HOP-62 = tested on: HOP-62
SW-620 = tested on: SW-620
K562 = tested on: K562
EKVX = tested on: EKVX
IGROV-1 = tested on: IGROV-1
LXFL 529 = tested on: LXFL 529
RPMI-8226 = tested on: RPMI-8226
KM12 = tested on: KM12
NCI-H23 = tested on: NCI-H23
NCI-H522 = tested on: NCI-H522
UACC-257 = tested on: UACC-257
UACC-62 = tested on: UACC-62
M19-MEL = tested on: M19-MEL
SF-268 = tested on: SF-268
SR = tested on: SR
HOP-92 = tested on: HOP-92
TK-10 = tested on: TK-10
SF-295 = tested on: SF-295
CCRF-CEM = tested on: CCRF-CEM
COLO 205 = tested on: COLO 205
A549 = tested on: A549
SNB-19 = tested on: SNB-19
SK-MEL-2 = tested on: SK-MEL-2
SNB-75 = tested on: SNB-75
Malme-3M = tested on: Malme-3M
HCT-116 = tested on: HCT-116
MOLT-4 = tested on: MOLT-4
SK-MEL-5 = tested on: SK-MEL-5
XF498 = tested on: XF498
OVCAR-4 = tested on: OVCAR-4
HCC 2998 = tested on: HCC 2998
SN12C = tested on: SN12C
OVCAR-3 = tested on: OVCAR-3
CAKI-1 = tested on: CAKI-1
HT-29 = tested on: HT-29
786-0 = tested on: 786-0
DMS-273 = tested on: DMS-273
RXF 631 = tested on: RXF 631
NCI-H226 = tested on: NCI-H226
U-251 = tested on: U-251
OVCAR-5 = tested on: OVCAR-5
ACHN = tested on: ACHN
KM-20L2 = tested on: KM-20L2
SNB-78 = tested on: SNB-78
NCI-H460 = tested on: NCI-H460
RXF 393 = tested on: RXF 393
LOX IMVI = tested on: LOX IMVI

Measured: GI50

O=C1COc2cc3c(cc2N1)SCCC(=O)N3
inactive: A498 > 100 µM | HL-60 > 100 µM | SF-539 > 100 µM | UO-31 > 100 µM | DMS-114 > 100 µM | DLD-1 > 100 µM | M14 > 100 µM | OVCAR-8 > 100 µM | SK-MEL-28 > 100 µM | SK-OV-3 > 100 µM | HOP-18 > 100 µM | HOP-62 > 100 µM | SW-620 > 100 µM | K562 > 100 µM | EKVX > 100 µM | IGROV-1 > 100 µM | LXFL 529 > 100 µM | RPMI-8226 > 100 µM | KM12 > 100 µM | NCI-H23 > 100 µM | NCI-H522 > 100 µM | UACC-257 > 100 µM | UACC-62 > 100 µM | M19-MEL > 100 µM | SF-268 > 100 µM | SR > 100 µM | HOP-92 > 100 µM | TK-10 > 100 µM | SF-295 > 100 µM | CCRF-CEM > 100 µM | COLO 205 > 100 µM | A549 > 100 µM | SNB-19 > 100 µM | SK-MEL-2 > 100 µM | SNB-75 > 100 µM | Malme-3M > 100 µM | HCT-116 > 100 µM | MOLT-4 > 100 µM | SK-MEL-5 > 100 µM | XF498 > 100 µM | OVCAR-4 > 100 µM | HCC 2998 > 100 µM | SN12C > 100 µM | OVCAR-3 > 100 µM | CAKI-1 > 100 µM | HT-29 > 100 µM | 786-0 > 100 µM | DMS-273 > 100 µM | RXF 631 > 100 µM | NCI-H226 > 100 µM

CC(=O)OCC1(C)C(OC(C)=O)CCC2(C)C(CC(OC(C)=O)C3=CCOC3=O)C(O)(CO)CCC12 (centres undefined)
inactive: A498 > 100 µM | HL-60 61.5 µM | SF-539 > 100 µM | UO-31 > 100 µM | DLD-1 > 100 µM | M14 > 100 µM | OVCAR-8 > 100 µM | SK-MEL-28 > 100 µM | U-251 > 100 µM | SK-OV-3 > 100 µM | OVCAR-5 > 100 µM | HOP-18 > 100 µM | HOP-62 > 100 µM | SW-620 > 100 µM | K562 > 100 µM | EKVX > 100 µM | IGROV-1 > 100 µM | LXFL 529 > 100 µM | RPMI-8226 > 100 µM | KM12 > 100 µM | NCI-H23 > 100 µM | NCI-H522 > 100 µM | UACC-257 > 100 µM | UACC-62 > 100 µM | ACHN > 100 µM | M19-MEL > 100 µM | SF-268 > 100 µM | HOP-92 > 100 µM | KM-20L2 > 100 µM | TK-10 > 100 µM | SF-295 > 100 µM | CCRF-CEM 53.1 µM | COLO 205 > 100 µM | A549 > 100 µM | SNB-78 > 100 µM | NCI-H460 > 100 µM | RXF 393 > 100 µM | SNB-19 > 100 µM | SNB-75 > 100 µM | Malme-3M > 100 µM | HCT-116 > 100 µM | SK-MEL-5 > 100 µM | XF498 > 100 µM | OVCAR-4 > 100 µM | HCC 2998 > 100 µM | SN12C > 100 µM | OVCAR-3 > 100 µM | CAKI-1 > 100 µM | HT-29 > 100 µM | 786-0 > 100 µM | DMS-273 > 100 µM | LOX IMVI > 100 µM | RXF 631 > 100 µM | NCI-H226 > 100 µM
